In patent US20240108737A1, “ANTI-INFECTIVE BICYCLIC PEPTIDE LIGANDS” (priority 2021, published 2024):
*1 amine or outer side, *2 acyl side, *3 side chain or, on linkers, in order; H or OH if unused. Where a SMILES comes first, the peptide text is derived from it. Bridges are numbered along the chain shown (N, C = ends). Roman numbers before positions name the chains, in order. [ ]: non-standard residue; d: D form. X1 = O=C(CCOCCOCCOCCOCCOCCOCCOCCOCCOCCOCCOCCOCCOCCOCCOCCOCCOCCOCCOCCOCCOCCOCCOCCOCCn1cc(CCC(=O)[*:2])nn1)[*:1]; X3 = O=C(CCc1cn(CCOCCOCCOCCOCCOCCOCCOCCOCCOCCOCCOCCOCCOCCOCCOCCOCCOCCOCCOCCOCCOCCOCCOCCOCCC(=O)[*:2])nn1)[*:1]; TATB = O=C(C[*:1])N1CN(C(=O)C[*:2])CN(C(=O)C[*:3])C1; X2 = C(c1nc(C[*:2])nc(C[*:3])n1)[*:1]; hArg = N=C(N)NCCCC[C@H](N)C(=O)O; tBuAla = CC(C)(C)C[C@H](N)C(=O)O; Agb = N=C(N)NCC[C@H](N)C(=O)O

Columns and labels:
[1] = tested on: SARS-CoV-2 pseudotyped HIV-1 virions; settings: 72 h
[2] = tested on: SARS-CoV-2; settings: 3 h
[3] = tested on: SARS-CoV-2; settings: hamster, in vivo
[4] = tested on: SARS-CoV-2 pseudotyped HIV-1 virions, B.1.1.7 (Alpha)
[5] = tested on: SARS-CoV-2 pseudotyped HIV-1 virions, B.1.351 (Beta)
[6] = tested on: SARS-CoV-2 pseudotyped HIV-1 virions, P.1 (Gamma)
[7] = tested on: SARS-CoV-2 pseudotyped HIV-1 virions, B.1.617.2 (Delta)
[8] = tested on: SARS-CoV-2 pseudotyped HIV-1 virions, B.1.427 (California)

Molecule CC(=O)N[C@H]1CSCc2nc3nc(n2)CSC[C@H](NC(=O)[C@H]([C@@H](C)O)NC(=O)[C@@H](C)NC(=O)[C@H](CCNC(=N)N)NC(=O)CNC(=O)[C@H](C)NC(=O)[C@H](C(C)C)NC(=O)[C@H](Cc2ccc(O)cc2)NC(=O)[C@@H]2CCCN2C1=O)C(=O)N[C@@H](CC(C)C)C(=O)N[C@@H](CC(C)(C)C)C(=O)N[C@H](C(=O)N[C@@H](CCCCNC(=O)CCOCCOCCOCCOCCOCCOCCOCCOCCOCCOCCOCCOCCOCCOCCOCCOCCOCCOCCOCCOCCOCCOCCOCCOCCn1cc(CCC(=O)NCCCC[C@H](NC(=O)[C@@H]2CSCc4nc5nc(n4)CSC[C@H](NC(C)=O)C(=O)N4CCC[C@H]4C(=O)N[C@@H](Cc4ccc(O)cc4)C(=O)N[C@@H](C(C)C)C(=O)N[C@@H](C)C(=O)NCC(=O)N[C@@H](CCNC(=N)N)C(=O)N[C@H](C)C(=O)N[C@@H]([C@@H](C)O)C(=O)N[C@@H](CSC5)C(=O)N[C@@H](CC(C)C)C(=O)N[C@@H](CC(C)(C)C)C(=O)N2)C(N)=O)nn1)C(N)=O)CSC3 [BCY17196] (I: Ac-CPYVAG[Agb][dA]TCL[tBuAla]CK-NH2 / II: Ac-CPYVAG[Agb][dA]TCL[tBuAla]CK-NH2; linker I:1-I:10-I:13, II:1-II:10-II:13 via X2; linker I:14-II:14 via X1) has an IC50 [1] of 15300 nM.

CC[C@H](C)[C@@H]1NC(=O)[C@H](CCSC)NC(=O)[C@@H]2CSCC(=O)N3CN(CN(C3)C(=O)CSC[C@@H](C(=O)N[C@@H](CCCCNC(=O)CCOCCOCCOCCOCCOCCOCCOCCOCCOCCOCCOCCOCCOCCOCCOCCOCCOCCOCCOCCOCCOCCOCCOCCOCCn3cc(CCC(=O)NCCCC[C@H](NC(=O)[C@@H]4CSCc5nc6nc(n5)CSC[C@H](NC(C)=O)C(=O)N5CCC[C@H]5C(=O)N[C@@H](Cc5ccc(O)cc5)C(=O)N[C@@H](C(C)C)C(=O)N[C@@H](C)C(=O)NCC(=O)N[C@@H](CCNC(=N)N)C(=O)N[C@H](C)C(=O)N[C@@H]([C@@H](C)O)C(=O)N[C@@H](CSC6)C(=O)N[C@@H](CC(C)C)C(=O)N[C@@H](CC(C)(C)C)C(=O)N4)C(N)=O)nn3)C(N)=O)NC(=O)[C@H](C)NC1=O)C(=O)CSC[C@H](NC(C)=O)C(=O)N[C@@H]([C@@H](C)CC)C(=O)N1CCC[C@H]1C(=O)N[C@@H](CC(C)C)C(=O)N[C@@H](CC(=O)O)C(=O)N[C@@H](Cc1c[nH]c3ccccc13)C(=O)N[C@@H]([C@@H](C)O)C(=O)N2 [BCY18656] was tested, and the IC50 [2] was 0.314 nM and the “viral load of SARS-CoV-2” value [3] was “reduces the viral load”.

CC(=O)N[C@@H](C)C(=O)N[C@H]1CSCC(=O)N2CN3CN(C2)C(=O)CSC[C@H](NC(=O)[C@H](C(C)C)NC(=O)[C@@H]2CCCN2C(=O)[C@H](CC(N)=O)NC(=O)[C@H](CC(=O)O)NC(=O)[C@@H]2CCCN2C(=O)[C@H](CO)NC(=O)[C@H](C)NC1=O)C(=O)N[C@@H](CCCNC(=N)N)C(=O)N[C@@H](Cc1ccccc1)C(=O)N[C@@H](Cc1ccc(O)cc1)C(=O)N[C@H](C(=O)N[C@@H](C)C(=O)N[C@@H](CCCCNC(=O)CCc1cn(CCOCCOCCOCCOCCOCCOCCOCCOCCOCCOCCOCCOCCOCCOCCOCCOCCOCCOCCOCCOCCOCCOCCOCCOCCC(=O)NCCCC[C@H](NC(=O)[C@@H]2CSCc4nc5nc(n4)CSC[C@H](NC(C)=O)C(=O)N4CCC[C@H]4C(=O)N[C@@H](Cc4ccc(O)cc4)C(=O)N[C@@H](C(C)C)C(=O)N[C@@H](C)C(=O)NCC(=O)N[C@@H](CCNC(=N)N)C(=O)N[C@H](C)C(=O)N[C@@H]([C@@H](C)O)C(=O)N[C@@H](CSC5)C(=O)N[C@@H](CC(C)C)C(=O)N[C@@H](CC(C)(C)C)C(=O)N2)C(N)=O)nn1)C(N)=O)CSCC3=O [BCY17191] (I: Ac-ACASPDNPVCRFYCAK-NH2 / II: Ac-CPYVAG[Agb][dA]TCL[tBuAla]CK-NH2; linker I:2-I:10-I:14 via TATB; linker I:16-II:14 via X3; linker II:1-II:10-II:13 via X2) was tested, and the IC50 [1] was 10.6 nM.

CC(=O)N[C@H]1CSCC(=O)N2CN3CN(C2)C(=O)CSC[C@H](NC(=O)[C@H](C(C)C)NC(=O)[C@@H]2CCCN2C(=O)[C@H](CC(N)=O)NC(=O)[C@H](CC(=O)O)NC(=O)[C@@H]2CCCN2C(=O)[C@H](CC(N)=O)NC(=O)[C@H](C)NC1=O)C(=O)N[C@@H](CCCNC(=N)N)C(=O)N[C@@H](Cc1ccccc1)C(=O)N[C@@H](Cc1ccc(O)cc1)C(=O)N[C@H](C(=O)N[C@@H](CCCCNC(=O)CCOCCOCCOCCOCCOCCOCCOCCOCCOCCOCCOCCOCCOCCOCCOCCOCCOCCOCCOCCOCCOCCOCCOCCOCCn1cc(CCC(=O)NCCCC[C@H](NC(=O)[C@@H]2CSCc4nc5nc(n4)CSC[C@H](NC(C)=O)C(=O)N4CCC[C@H]4C(=O)N[C@@H](Cc4ccc(O)cc4)C(=O)N[C@@H](C(C)C)C(=O)N[C@@H](C)C(=O)NCC(=O)N[C@@H](CCCCNC(=N)N)C(=O)N[C@H](C)C(=O)N[C@@H]([C@@H](C)O)C(=O)N[C@@H](CSC5)C(=O)N[C@@H](CC(C)C)C(=O)N[C@@H](CC(C)(C)C)C(=O)N2)C(N)=O)nn1)C(N)=O)CSCC3=O [BCY18786] (I: Ac-CANPDNPVCRFYCK-NH2 / II: Ac-CPYVAG[hArg][dA]TCL[tBuAla]CK-NH2; linker I:1-I:9-I:13 via TATB; linker I:14-II:14 via X1; linker II:1-II:10-II:13 via X2) gave an IC50 [1] of 0.2 nM, an IC50 [4] of 6 nM and an IC50 [5] of 272 nM. It also gave an IC50 [6] of 140 nM, an IC50 [7] of 437 nM and an IC50 [8] of 93 nM. The IC50 [2] was 246 nM.
